Where two headings read alike, the source gives them in different places. Values belong to the molecule of their own block, whether it stands above or below them.
Columns and labels:
[1] = Fluorescence emission peaks excited by 365 nm ultraviolet light; assay type: physicochemical
Description: That is, the wavelength range of 400-550 nm within which the emission peaks of the fluorescent whitening agent CBS occur is avoided. In this way, the interference of the fluorescent whitening agent with the CMC determination result may be avoided.

[2] = Description: It is generally believed that the type or polarity of a solvent almost has no influence on the fluorescence absorption or emission spectrum of the HPS.
[3] = cited from earlier work

SMILES: O=S(=O)([O-])c1ccccc1C=Cc1ccc(-c2ccc(C=Cc3ccccc3S(=O)(=O)[O-])cc2)cc1.[Na+].[Na+] [CBS]
- Wavelength range of emission peaks ([1]; fluorescent whitening agent in detergent): 400-550 nm

SMILES: C[S+](C)[O-] [DMSO]
- Solubility of HPS to Solvent [2]: soluble

SMILES: c1ccc(C2=C(c3ccccc3)[Si](c3ccccc3)(c3ccccc3)C(c3ccccc3)=C2c2ccccc2)cc1 [HPS, 1,1,2,3,4,5-hexaphenylsilole]
- Solubility of HPS powder in water [2]: insoluble in water
- Fluorescence emission peak, sharp with high intensity ([1]; excited by 365 nm): 350-370 nm
- Fluorescence emission peak, wide and short with relatively low intensity ([1]; excited by 365 nm): 720-740 nm
- Solubility of HPS ([3]; alcohols such as methanol): slightly soluble
- Solubility of HPS ([3]; good solvents such as acetonitrile, tetrahydrofuran and chloroform): highly soluble
- Solubility of HPS ([3]; water): completely insoluble

More lines, now with the values ahead:

- Solubility of HPS to Solvent [2]: soluble
SMILES: c1ccc2ncccc2c1 [Quinoline]

- Solubility of HPS to Solvent [2]: slightly soluble
SMILES: CCCCCO [n-pentanol]

- Solubility of HPS to Solvent [2]: soluble
SMILES: CN1CCCC1=O [NMP]
